Data on 35 compounds can be found in ChEMBL document CHEMBL1145638, “Discovery of a novel submicromolar inhibitor of the lymphoid specific tyrosine phosphatase” (Bioorg Med Chem Lett, 2008).

The structures appear in SMILES notation.

This test deals with T1, Tyrosine-protein phosphatase non-receptor type 22 (Homo sapiens, UniProt Q9Y2R2).
T1 sequence (Q9Y2R2 whole entry): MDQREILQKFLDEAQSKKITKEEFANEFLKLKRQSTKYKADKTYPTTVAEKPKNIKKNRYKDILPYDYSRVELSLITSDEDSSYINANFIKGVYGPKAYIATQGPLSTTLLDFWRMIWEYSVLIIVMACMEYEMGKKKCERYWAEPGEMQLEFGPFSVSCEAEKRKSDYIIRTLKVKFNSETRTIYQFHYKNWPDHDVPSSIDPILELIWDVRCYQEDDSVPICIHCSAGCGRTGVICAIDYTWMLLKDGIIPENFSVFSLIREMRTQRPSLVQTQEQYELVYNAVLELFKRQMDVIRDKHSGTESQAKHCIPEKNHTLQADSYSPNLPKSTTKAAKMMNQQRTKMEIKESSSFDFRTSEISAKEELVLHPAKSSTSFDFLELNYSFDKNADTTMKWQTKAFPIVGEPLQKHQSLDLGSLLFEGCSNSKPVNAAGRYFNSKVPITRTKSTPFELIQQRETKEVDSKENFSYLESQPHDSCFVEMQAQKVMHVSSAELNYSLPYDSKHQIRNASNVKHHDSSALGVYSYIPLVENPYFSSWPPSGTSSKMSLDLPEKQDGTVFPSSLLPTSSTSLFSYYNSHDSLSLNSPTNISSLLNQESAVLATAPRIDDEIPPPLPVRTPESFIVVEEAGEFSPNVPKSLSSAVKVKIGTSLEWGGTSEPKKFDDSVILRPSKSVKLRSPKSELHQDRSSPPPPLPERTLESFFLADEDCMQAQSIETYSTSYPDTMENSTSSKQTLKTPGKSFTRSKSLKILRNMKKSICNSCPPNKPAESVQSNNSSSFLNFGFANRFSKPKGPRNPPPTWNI
Briefly: Inhibition of lymphoid specific tyrosine phosphatase.
Compound `COC(=O)c1cc(-c2ccc(/C=C3\SC(=S)N(CC(=O)O)C3=O)o2)ccc1O` yielded an IC50 of 21 µM.
In the case of `COC(=O)c1cc(-c2ccc(/C=N/N3CC(=O)NC3=O)o2)ccc1O` it was over 44 µM.
Compound `O=C(O)COc1ccc(-c2ccc(/C=C3\SC(=S)N(CC(=O)O)C3=O)o2)cc1C(=O)O` registered an IC50 of over 44 µM.
With `COC(=O)c1cc(-c2ccc(/C=N/N3CC(=O)NC3=O)s2)ccc1O`, the IC50 was over 44 µM.
Regarding `O=C1CN(/N=C/c2ccc(-c3ccc(O)c(C(=O)O)c3)o2)C(=O)N1`, the IC50 is over 44 µM.
Take `COC(=O)c1cc(-c2ccc(/C=C3\SC(=O)N(CCC(=O)O)C3=O)o2)ccc1O`: the IC50 came out at 4.3 µM.
The result for `CC(C(=O)O)N1C(=O)/C(=C/C=C/c2ccco2)SC1=S` (stereo not given) reads 2.5 µM; that for `O=C(O)CN1C(=O)CN(/N=C/c2ccc(-c3ccc(O)c(C(=O)O)c3)s2)C1=O`, over 44 µM.
The result for `O=C(O)CN1C(=O)S/C(=C\c2ccc(-c3ccc(O)c(C(=O)O)c3)o2)C1=O` reads 5.6 µM; that for `O=C(O)CCN1C(=O)/C(=C\c2ccc(-c3nc4ccccc4s3)o2)SC1=S`, 0.98 µM; that for `Cc1ccc(NC(=O)CN2C(=O)S/C(=C\c3cccn3-c3cccc(C(=O)O)c3)C2=O)c(C)c1`, 1 µM.
For `O=C(O)CN1C(=O)/C(=C/c2ccc(-c3ccc(O)c(C(=O)O)c3)o2)SC1=S`, inhibition was half-maximal at 8.7 µM (IC50).
Compound `COC(=O)CN1C(=O)S/C(=C\c2ccc(-c3ccc(O)c(C(=O)O)c3)s2)C1=O` yielded a half-maximal inhibitory concentration (IC50) of 1.8 µM.
For the compound `COC(=O)c1cc(-c2ccc(/C=C3\SC(=O)N(CC(=O)O)C3=O)s2)ccc1O`, half-maximal inhibition (IC50) required 18 µM.
`O=C(O)CCCN1C(=O)/C(=C\c2ccc(-c3nc4ccccc4s3)o2)SC1=S` came in with an IC50 of 1.3 µM.
As for `Cc1ccccc1NC(=O)CN1C(=O)S/C(=C\c2cccn2-c2cccc(C(=O)O)c2)C1=O`, the IC50 was 1.9 µM.
`COC(=O)CN1C(=O)S/C(=C\c2ccc(-c3ccc(O)c(C(=O)OC)c3)o2)C1=O` gave an IC50 of over 44 µM.
As for `O=C(O)CCN1C(=O)S/C(=C\c2ccc(-c3ccc(O)c(C(=O)O)c3)o2)C1=O`, it took 5.1 µM to reach half-maximal inhibition (IC50).
`COC(=O)c1cc(-c2ccc(/C=C3\SC(=O)N(CCC(=O)O)C3=O)s2)ccc1O` registered an IC50 of 0.39 µM.
The result for `Cc1ccc(NC(=O)CN2C(=O)S/C(=C\c3ccc(-c4cccc(C(=O)O)c4C)o3)C2=O)cc1` (stereo in doubt; form 2) reads 3.5 µM.
The result for `COC(=O)c1cc(-c2ccc(/C=C3\SC(=O)N(CC(=O)O)C3=O)o2)ccc1O` reads over 44 µM.
In turn, `CC(C)C(C(=O)O)N1C(=O)/C(=C/C=C/c2ccco2)SC1=S` (stereo not given) returned a concentration for half-maximal inhibition (IC50) of 1.9 µM.
For `Cc1ccc(NC(=O)CN2C(=O)S/C(=C\c3ccc(-c4cccc(C(=O)O)c4C)o3)C2=O)cc1` (stereo in doubt; form 1), the IC50 is 3.3 µM.
The result for `COC(=O)CCN1C(=O)S/C(=C\c2ccc(-c3ccc(O)c(C(=O)OC)c3)o2)C1=O` reads 44 µM; that for `COC(=O)CN1C(=O)S/C(=C\c2ccc(-c3ccc(O)c(C(=O)OC)c3)s2)C1=O`, over 44 µM.
The compound `Cc1cccc(C)c1NC(=O)CN1C(=O)S/C(=C\c2cccn2-c2cccc(C(=O)O)c2)C1=O` gave an IC50 of 4.8 µM.
In the case of `COC(=O)CN1C(=O)S/C(=C\c2ccc(-c3ccc(O)c(C(=O)O)c3)o2)C1=O` it was 4.8 µM; in that of `COC(=O)c1cc(-c2ccc(/C=C3\SC(=S)N(CC(=O)O)C3=O)s2)ccc1O`, 4.3 µM.
For `O=C(O)CN1C(=O)S/C(=C\c2ccc(-c3ccc(O)c(C(=O)O)c3)s2)C1=O`, the half-maximal inhibitory concentration (IC50) came out at 2.8 µM.
Turning to `O=C(O)CN1C(=O)/C(=C/c2ccc(-c3ccc(O)c(C(=O)O)c3)s2)SC1=S`, the IC50 was 5.4 µM.
`COC(=O)CCN1C(=O)S/C(=C\c2ccc(-c3ccc(O)c(C(=O)OC)c3)s2)C1=O` gave an IC50 of over 44 µM.
The compound `O=C1CN(/N=C/c2ccc(-c3ccc(O)c(C(=O)O)c3)s2)C(=O)N1` showed an IC50 of 34 µM.
Compound `O=C(O)CCN1C(=O)S/C(=C\c2ccc(-c3ccc(O)c(C(=O)O)c3)s2)C1=O` yielded an IC50 of 5.9 µM.
In turn, `O=C(O)C(Cc1ccccc1)N1C(=O)/C(=C/C2=c3ccccc3=CCC2)SC1=S` (stereo not given) showed a 50% inhibitory concentration (IC50) of 14 µM.
Take `O=C(O)CN1C(=O)CN(/N=C/c2ccc(-c3ccc(O)c(C(=O)O)c3)o2)C1=O`: the midpoint of inhibition, the IC50, lay at 36 µM.

In general, IC50 refers to the concentration that gives 50% inhibition. A high value points to weaker potency.
